Test results reported in US20250049927A1, “MODIFIED OLIGONUCLEOTIDE-DRUG CONJUGATE AND USE THEREOF” (INTEROLIGO CORPORATION., priority 2021, published 2025).

Tests used:
[1] = in vivo; conditions: male, Sprague-Dawley, rat, iv, 2 mg/kg
Description: Specifically, Sprague-Dawley male rats (8 weeks old, purchased from Youngbio) were acclimatized for 1 week in the animal room of the Catholic University Songsim Campus, and then pharmacokinetic experiments were performed. Rats were induced with isoflurane, an inhalation anesthetic, and PE50 (polyethylene tubing, Clay Adams, Becton Dickinson, NJ, USA) was inserted into the carotid (for blood collection) and jugular vein (for drug administration), followed by suturing with suture, and then end portions thereof were fixed to the back of the neck. During the surgery, anesthesia was maintained using ether, and about 0.5 mL of physiological saline solution containing heparin (20 units/mL) was injected to prevent blood from coagulating in the cannula. After completing the surgery, each rat was placed in a metabolic cage and allowed to fully recover from the anesthetic (for 4-5 hours). Then, the rats were divided into three groups of a group administered with Example 9 (IO176) alone (n=6), and a group administered with MMAE alone (n=7), and a group administered with gemcitabine alone (n=6), and each sample (Example 9, MMAE alone, gemcitabine alone) was administered into the rats. All of Example 9, MMAE and gemcitabine were dissolved in physiological saline at 2 mL per kg of body weight and administered into the jugular vein at doses of 40 mg/kg, 4 mg/kg and 2 mg/kg, respectively. When collecting blood, in order to prevent gemcitabine in 0.2 mL of blood from being converted into metabolites by cytidine deaminase, a light-shielding Eppendorf tube was prepared in which 2 μL of a solution containing tetrahydrouridine (hereinafter referred to as THU), a cytidine deaminase inhibitor, dissolved in distilled water at a concentration of 10 mg/mL was added in advance. […] Immediately after completing the blood collection, the plasma that had been stored in an ice-bath was quickly centrifuged at 4° C., and 100 μL of the plasma was dispensed into the light-shielding Eppendorf tube. The dispensed plasma was quickly stored in an ice-bath and maintained at −80° C. until LC-MS/MS analysis was performed. After collection of blood from the carotid, the rats were euthanized in a CO2 gas chamber.
• Analysis equipment: Agilent 1290 series HPLC, Qtrap 5500 LC-MS/MS • Detector: Tandem mass spectrometer (triple quadrouple type) • Ion source: Electrospray ionization (positive ion mode) • Desolvation temperature: 500° C. • Nebulizing gas: Nitrogen, Collision gas: Nitrogen • Quantitation: MRM (multiple reaction monitoring) mode • Stationary phase: Hypersil gold C18 column (2.1×100 mm, 1.9 μm, Thermo) Fisher Scientific Inc., Boston, USA) • Stationary phase temperature: 40° C. • Mobile phase: Distilled water (A) and acetonitrile (B) respectively containing 0.1% formic acid (95:5, v/v) (see [Table below) • Flow rate: 0.22 mL/min • Mass parameters: See [Table 8] below (CE: Collision energy)
Each of gemcitabine and dFdU standard product was dissolved in distilled water to prepare 400 μg/mL and 700 μg/mL of storage solutions and store them frozen. Then, the storage solutions were diluted with tertiary distilled water to prepare working solutions so that the concentrations were 0.200, 0.400, 0.800, 2.00, 10.0 and 40.0 μg/mL, respectively, followed by storing them in a refrigerator. 5′-Deoxy-5-fluorocytidine, an internal standard (IS), was dissolved in acetonitrile to prepare 50 ng/mL of working solution. The working solution of gemcitabine and dFdU was added to rat blank plasma containing THU to prepare standard plasma samples so that the plasma concentrations of gemcitabine and dFdU were 10, 20, 40, 100, 500 and 2000 ng/mL, respectively.
150 μL of 5′-Deoxy-5-fluorocytidine (50 ng/mL), the internal standard dissolved in acetonitrile, was added to 20 μL of rat plasma, and vortexed for 10 minutes, followed by centrifuging at 14,000 rpm at 4° C. for 5 minutes.

[2] = system: BxPC-3 pancreatic cancer cell lines; assay: Pancreatic cancer cell growth inhibition, WST assay; type: cell-based; conditions: BxPC-3, 72 hours treatment, absorbance 450 nm
Description: The in vitro anticancer efficacy of the modified oligonucleotide-drug conjugates was verified using pancreatic cancer cell lines. Pancreatic cancer cell lines (BxPC-3) were treated with the above-described examples and comparative examples at concentrations of 0, 0.01, 0.1, 1, 10, 100, 500 and 1000 μM, and the specific IC50 measurement method and measurement results are as follows.
All cell lines were cultured in a 5% CO2 incubator at 37° C. The BxPC-3 pancreatic cancer cell lines were cultured using a medium containing 10% FBS and 1% antibiotics put into ATCC modified RPMI-1640 (Thermo Scientific, USA). The medium was replaced once every 2-3 days, and passage-cultured at a time when about 70-90% of a culture dish was filled with the cells. First, the cells were washed with PBS, then 0.05% Trypsin-EDTA was added and cultured at 37° C. for 2 minutes, and then a new medium was added to inactivate trypsin. The cells were separated from trypsin and medium using a centrifuge, then another new medium was added and passaged at a ratio of 1:4, followed by culturing the same. All cells were periodically checked for contamination by mycoplasma using a kit (Intron, Korea), and in vitro efficacy evaluation experiments were conducted using only cells in which contamination was not detected.
Using WST reagent (Dongin LS, Korea), an inhibitory effect on pancreatic cancer cell growth by drug treatment was confirmed and IC50 was measured. An orange coloring substance called formazan is produced in WST by mitochondrial dehydrogenase within cells, which is effective only in living cells. The specific test method is as follows.
The cells cultured by the above-described method were dispensed by 2×10^4 into each well of a 96-well culture vessel and cultured for 24 hours. The medium of the cells attached to the culture vessel was replaced with an ATCC modified RPMI-1640 medium containing 5% FBS, and samples of the above-described modified oligonucleotide-drug conjugates (Examples 1-7 and 9-12, and Comparative Example 1-7, respectively) were treated at concentrations of 0, 0.01, 0.1, 1, 10, 100, 500 and 1000 μM. After 72 hours, 10 μl of WST reagent was added to each well and reacted for 2 hours. The produced formazan was measured with an absorbance at 450 nm using a Glomax plate meter (Promega, USA), and IC50 was evaluated according to the protocol in the device. IC50 evaluation results and graphs illustrating the same are shown in Table 2 below and FIGS. 19 to 27 (in Table 2, M=Gemcitabine, and N=5-FdU).

Question: For `Nc1ccn([C@@H]2O[C@H](CO)[C@@H](O)C2(F)F)c(=O)n1` [Gemcitabine, 2′,2′-difluoro-2′-deoxycytidine], which Vd ([1]; in vivo) is on record?
Answer: The Vd was 2.73 ± 1.22 L/kg.

Question: And the AUC(0-inf) ([1]; plasma)?
Answer: The AUC(0-inf) was 7500 ng·h/mL.

Question: What about the AUC(0-t) ([1]; plasma) of the same compound?
Answer: The AUC(0-t) was 7300 ng·h/mL.

Question: And the MRT ([1]; plasma)?
Answer: The MRT was 5.7 h.

Question: And the clearance ([1]; plasma)?
Answer: Its clearance is 4.77 ± 1.43 mL/min/kg.

Question: What about the half-life ([1]; plasma) of the same compound?
Answer: Its half-life is 6.8 ± 2.78 h.

Question: For “Comparative Example 1: control aptamer GGTGGTGGTGGTTGTGGTGGTGGTGG (SEQ ID NO: 1)”, which IC50 [2] is on record?
Answer: Its IC50 is 89.9 µM.

Question: Which IC50 [2] does the source give for “Comparative Example 2 (GGTGGTGGTGGTTGNGGTGGTGGTGG; paclitaxel conjugate; modified_base 15 OTHER; deoxyuridine(dU)-acrylamide-C6-NH2)” here?
Answer: Its IC50 is 4.59 µM.

Question: Which IC50 [2] does the source give for “Comparative Example 3 (GGTGGTGGTGGTNGTGGTGGTGGTGG; paclitaxel via acrylamide-C6-NH-succinic acid linker; modified_base 13 OTHER; deoxyuridine(dU)-acrylamide-C6-NH2)” here?
Answer: Its IC50 is 0.04 µM.

Question: For “Comparative Example 6: DM1 conjugated to U of GGTGGTGGTGGTUGTGGTGGTGGTGG (SEQ ID NO: 3); linker -acrylamide-C6-NH-SMCC- (DNA ggtggtggtggtngtggtggtggtgg; DM1 via acrylamide-C6-NH-SMCC linker; modified_base 13 OTHER; deoxyuridine(dU))”, which IC50 [2] is on record?
Answer: The IC50 was 3.01 µM.

Question: For “Example 1: paclitaxel conjugated to U of GGTGGTGGTGGUMGTGGTGGTGGTGG (SEQ ID NO: 4), M=Gemcitabine; linker -acrylamide-C6-NH-succinic acid- (DNA GGTGGTGGTGGNNGTGGTGGTGGTGG; paclitaxel via linker; gemcitabine at M; modified_base 12 OTHER; deoxyuridine(dU); modified_base 13 OTHER; Gemcitabine)”, which IC50 [2] is on record?
Answer: Its IC50 is 2.21 µM.

Question: For “Example 2 (GGTGGTGGTGGNTNTGGTGGTGGTGG; paclitaxel via acrylamide-C6-NH-succinic acid linker; modified_base 12 OTHER; deoxyuridine(dU); modified_base 14 OTHER; gemcitabine)”, which IC50 [2] is on record?
Answer: The IC50 was 0.23 µM.

Question: Which IC50 [2] does the source give for “Example 3 (GGTGGTGGTGGTNNTGGTGGTGGTGG; paclitaxel via acrylamide-C6-NH-succinic acid linker on U; modified_base 13 OTHER; deoxyuridine(dU); modified_base 14 OTHER; gemcitabine)” here?
Answer: Its IC50 is 1 µM.

Question: With “Example 6: paclitaxel conjugated to U of GGTGGTGGTGGTUGTGGTGGTGGMGG (SEQ ID NO: 9), M=Gemcitabine; linker -acrylamide-C6-NH-succinic acid- (DNA GGTGGTGGTGGTNGTGGTGGTGGNGG; paclitaxel via linker; gemcitabine at M; modified_base 13 OTHER; deoxyuridine(dU); modified_base 24 OTHER; gemcitabine)” as the compound, how does the IC50 [2] read?
Answer: Its IC50 is 0.14 µM.

Question: For “Example 7 (GGTGGTGGTGGTTGNGGTGGTGGNGG; paclitaxel via acrylamide-C6-NH-succinic acid linker on U; modified_base 15 OTHER; deoxyuridine(dU); modified_base 24 OTHER; gemcitabine)”, which IC50 [2] is on record?
Answer: The IC50 was 0.11 µM.

Question: Which IC50 [2] does the source give for “Example 11: DM1 conjugated to U of GGTGGTGGTGGMUGMGGTGGTGGTGG (SEQ ID NO: 8), M=Gemcitabine; linker -acrylamide-C6-NH-SMCC- (DNA GGTGGTGGTGGNNGNGGTGGTGGTGG; gemcitabine nucleotides; DM1 via SMCC linker; modified_base 13 OTHER; deoxyuridine(dU); modified_base 12 OTHER; gemcitabine; modified_base 15 OTHER)” here?
Answer: The IC50 was 26.7 µM.
